From PubChem BioAssay AID1918956 (Molecular Pharmacology Branch, DTP, NCI, 2023)
pIC50: −log10 of the molar value. “And” between values parts separate entries of the source, which are not always exact repeats. Identical values can stand only once.

Test system: OVCAR-5 complex spheroids, viability
Assay: Anticancer human tumor OVCAR-5 cell line growth inhibition;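 further: spheroids exposed to agents for seven days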;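 on viability, T/C: 100% = DMSO vehicle control wells viability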
Conditions: for viability, T/C: stronger effect = lower value
From the text: Multicellular complex tumor spheroid response to LSD1 Inhibitor Iadademstat in combination with a variety of drugs and investigational agents in selected tumor cell lines
The current study was undertaken to assess response to LSD1 inhibitors in combination with standard-of-care drugs and investigational agents in solid tumor complex spheroid models as well as in the K-562 leukemia. Complex spheroids include a stromal component modeled by human endothelial cells (HUVEC) and fibroblasts modeled by human mesenchymal stem cells (MSCs). The concentration ranges selected for each drug and investigational agent were based upon clinically achievable concentrations if the clinical Cmax of the agent was known.
Compounds. The drugs and investigational agents used in this study are listed on Table 1. All of the agents used, including staurosporine (NSC755774) and gemcitabine (NSC613327), were obtained from the Developmental Therapeutics Program, NCI. FDA-approved anticancer drugs are available from the NCI at http://dtp.nci.nih.gov/branches/dscb/oncology_drugset_explanation.html. Drugs and investigational agents were >95% pure by proton nuclear magnetic resonance (NMR) and liquid chromatography/mass spectrometry (LC/MS). Stock solutions were prepared at 400x in DMSO, stored at -70 degrees C, and diluted in fresh medium prior to their use. The final concentration of DMSO in cell culture wells never exceeded 0.25% (v/v). The FDA-approved anticancer drug set is available from the Developmental Therapeutics Program at https://dtp.cancer.gov/organization/dscb/obtaining/available_plates.htm. All drugs and investigational agents were tested over a range starting from a high concentration at or near the clinical Cmax and decreasing in half-log increments. If the clinical Cmax for an agent had not been determined, the highest concentration tested was 10 microM.
Cell Lines. The patient-derived cancer cell (PDC) lines: 292921-168-R-J2-PDC, K24384-001-R-PDC, and 521955-158-R2-J5-PDC pancreatic carcinomas, 556581-035-R-J1 ovarian carcinoma, 324938-238-R-J1-PDC, 855422-203-R-J1-PDC and 883617-216-R-J1-PDC urothelial bladder carcinomas, 743489-274-T-PDC renal cell carcinoma, 138582-R-J1 Merkel cell tumor, K60290-347-R-J1 and K57222-313-R-J1-PDC glioblastomas, 653999-131-R-J2-PDC, LG0703-F948-PDC, and 349418-098-R-PDC non-small cell lung carcinomas, 885512-296-R-J2-PDC, 171881-019-R-J1-PDC breast carcinomas and 186277-243-T-J2-PDC and 233499-124-R-J2-PDC colon carcinomas were obtained from the NCI Patient-Derived Models Repository (PDMR, https://pdmr.cancer.gov). The established cell lines NCI/ADR-RES (RRID:CVCL_14520 and OVCAR-5 (RRID:CVCL_1628) ovarian carcinomas, 786-O (RRID:CVCL_1051) and A498 […] renal cell carcinoma, NCI-H211 (ATCC, cat. CRL-5824; RRID:CVCL_1529), NCI-H196 (ATCC, cat. CRL-5823, RRID:CVCL_1509), SW 1271 (ATCC, cat. CRL-2177, RRID:CVCL_1716) and NCI-H1876 (ATCC, cat. CRL-5902, RRID:CVCL_1503) small cell lung carcinomas, MDA-MB-231 (RRID:CVCL_0062) and MDA-MB-468 (RRID:CVCL_0419)breast carcinomas (10-12). Pooled donor human umbilical vein endothelial cells (HUVEC, Lonza, cat. CC-2519) and human mesenchymal stem cells (hMSC, Lonza, cat. PT-2501) were purchased from Lonza (Walkersville, MD).
Cell Culture. All cells were maintained in an incubator at 37 degrees C and 5% CO2 with 95% humidity. The PDC lines were cultured according to standard operating procedures established by the NCI PDMR (https://pdmr.cancer.gov). Briefly all PDCs were thawed and cultured in Matrigel-coated flasks prepared with a working solution of 1X Ham's F-12 nutrient mix, without supplementation (Invitrogen, Waltham, MA, cat. 11765054), 100 U/mL penicillin-streptomycin (Invitrogen, cat. 15140122), and 2.5% Matrigel (Corning Inc., Corning, NY, cat. 354248) for the first three passages. […]

CCN(c1cc(-c2ccc(CN3CCOCC3)cc2)cc(C(=O)NCc2c(C)cc(C)[nH]c2=O)c1C)C1CCOCC1 + NC1CC1c1ccc(-c2cccc(O)c2)cc1
pIC50 (curve of first compound, second compound 0.1 µM): < 5.52 | pIC50 (curve of first compound, second compound 0.316 µM): < 5.52 | pIC50 (curve of first compound, second compound 1 µM): < 5.52 | pIC50 (curve of first compound, second compound 3.16 µM): < 5.52 | pIC50 (curve of first compound, second compound 10 µM): < 5.52 | viability, T/C (second compound 0.1 µM, first compound 0.00949 µM): 87.6% | viability, T/C (second compound 0.1 µM, first compound 0.03 µM): 98.8% | viability, T/C (second compound 0.1 µM, first compound 0.0949 µM): 106% | viability, T/C (second compound 0.1 µM, first compound 0.3 µM): 97% | viability, T/C (second compound 0.1 µM, first compound 0.949 µM): 107% | viability, T/C (second compound 0.1 µM, first compound 3 µM): 92.6% | viability, T/C (second compound 0.316 µM, first compound 0.00949 µM): 102% | viability, T/C (second compound 0.316 µM, first compound 0.03 µM): 108% | viability, T/C (second compound 0.316 µM, first compound 0.0949 µM): 99.3% | viability, T/C (second compound 0.316 µM, first compound 0.3 µM): 94.8% | viability, T/C (second compound 0.316 µM, first compound 0.949 µM): 104% | viability, T/C (second compound 0.316 µM, first compound 3 µM): 102% | viability, T/C (second compound 1 µM, first compound 0.00949 µM): 91.5% | viability, T/C (second compound 1 µM, first compound 0.03 µM): 84.4% | viability, T/C (second compound 1 µM, first compound 0.0949 µM): 94.3% | viability, T/C (second compound 1 µM, first compound 0.3 µM): 103% | viability, T/C (second compound 1 µM, first compound 0.949 µM): 91.9% | viability, T/C (second compound 1 µM, first compound 3 µM): 98.5% | viability, T/C (second compound 3.16 µM, first compound 0.00949 µM): 88.8% | viability, T/C (second compound 3.16 µM, first compound 0.03 µM): 87.7% | viability, T/C (second compound 3.16 µM, first compound 0.0949 µM): 90.4% | viability, T/C (second compound 3.16 µM, first compound 0.3 µM): 90.9% | viability, T/C (second compound 3.16 µM, first compound 0.949 µM): 90.6% | viability, T/C (second compound 3.16 µM, first compound 3 µM): 92.9% | viability, T/C (second compound 10 µM, first compound 0.00949 µM): 86.7% | viability, T/C (second compound 10 µM, first compound 0.03 µM): 91.9% | viability, T/C (second compound 10 µM, first compound 0.0949 µM): 85.5% | viability, T/C (second compound 10 µM, first compound 0.3 µM): 93.4% | viability, T/C (second compound 10 µM, first compound 0.949 µM): 95.5% | viability, T/C (second compound 10 µM, first compound 3 µM): 91.1%

Nc1ncn(C2CC(O)C(CO)S2)c(=O)n1 (centres undefined)
viability, T/C (compound 0.000949 µM): 107% and 104% | viability, T/C (compound 0.003 µM): 104% and 109% | viability, T/C (compound 0.00949 µM): 104% | viability, T/C (compound 0.03 µM): 97.1% and 94.2% | viability, T/C (compound 0.0949 µM): 82.2% and 85.6% | viability, T/C (compound 0.3 µM): 78.2% and 72.3% | pIC50 (curve of compound): < 6.52

COc1cc(C2c3cc4c(cc3C(OC3OC5COC(C)OC5C(O)C3O)C3COC(=O)C23)OCO4)cc(OC)c1O (centres undefined)
viability, T/C (compound 0.00949 µM): 108% and 107% | viability, T/C (compound 0.03 µM): 110% and 94.7% | viability, T/C (compound 0.0949 µM): 101% and 84.4% | viability, T/C (compound 0.3 µM): 69.6% and 60.9% | viability, T/C (compound 0.949 µM): 44% and 35.2% | viability, T/C (compound 3 µM): 39% and 33.6% | pIC50 (curve of compound): 6.14 and 6.30
